Test results reported in patent publication US10981873B2 (priority 2016, dated 2021).

Assays:
[1] = system: Botulinum toxin type B (BoNT/B); parameters: species or system Balb/c mice; details: mouse, in vivo
[2] = system: Botulinum toxin type A (BoNT/A); parameters: species or system Balb/c mice; details: mouse, in vivo
[3] = biological target: Botulinum toxin type A endopeptidase (BoNT/A-LC) (Clostridium botulinum, UniProt P0DPI0); type: biochemical
[4] = biological target: Botulinum toxin type B endopeptidase (BoNT/B-LC) (Clostridium botulinum, UniProt P10844); type: biochemical
N2a cells = details: cited from earlier work

Botulinum toxin type B endopeptidase (BoNT/B-LC), sequence (P10844 2-441 limits assumed): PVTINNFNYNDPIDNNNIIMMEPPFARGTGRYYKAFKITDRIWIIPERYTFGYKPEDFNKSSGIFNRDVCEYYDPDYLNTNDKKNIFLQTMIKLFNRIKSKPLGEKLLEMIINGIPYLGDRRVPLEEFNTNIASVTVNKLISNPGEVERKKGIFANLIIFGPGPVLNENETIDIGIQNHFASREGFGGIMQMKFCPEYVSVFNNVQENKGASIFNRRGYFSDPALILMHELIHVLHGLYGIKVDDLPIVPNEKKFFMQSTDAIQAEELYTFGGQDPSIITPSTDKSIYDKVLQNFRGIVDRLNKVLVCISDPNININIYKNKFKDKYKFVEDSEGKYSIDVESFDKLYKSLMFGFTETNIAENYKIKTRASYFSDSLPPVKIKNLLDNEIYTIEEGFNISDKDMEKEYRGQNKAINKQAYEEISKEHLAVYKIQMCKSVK
Botulinum toxin type A endopeptidase (BoNT/A-LC), sequence (P0DPI0 2-448 limits assumed): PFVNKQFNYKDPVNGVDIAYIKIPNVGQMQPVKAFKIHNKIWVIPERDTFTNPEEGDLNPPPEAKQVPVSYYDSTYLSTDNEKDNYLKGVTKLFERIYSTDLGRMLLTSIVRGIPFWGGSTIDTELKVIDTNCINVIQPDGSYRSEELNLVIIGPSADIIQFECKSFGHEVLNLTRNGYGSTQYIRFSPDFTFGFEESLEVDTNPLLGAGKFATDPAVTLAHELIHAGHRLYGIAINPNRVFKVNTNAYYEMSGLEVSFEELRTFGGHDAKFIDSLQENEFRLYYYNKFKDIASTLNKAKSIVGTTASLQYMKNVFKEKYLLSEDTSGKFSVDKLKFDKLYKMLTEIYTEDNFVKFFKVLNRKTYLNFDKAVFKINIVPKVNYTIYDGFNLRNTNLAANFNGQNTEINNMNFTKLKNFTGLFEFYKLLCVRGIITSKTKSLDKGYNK

SMILES	Survival rate % [1] [%]	Survival rate % [2] [%]	Inhibition rate % [3] [%]	Inhibition rate % [4] [%]	neutralization of toxicity of botulinum toxin type A to N2a cells (N2a cells)
COc1ccc(Cl)cc1NC(=O)COc1ncccc1C(=O)O [Compound 6a, 2-(2-((5-chloro-2-methoxyphenyl)amino)-2-oxoethoxy)nicotinic acid]	20	60	0	80	
O=C(CS(=O)(=O)c1ncccc1C(=O)O)Nc1cc(Cl)ccc1Oc1ccccc1 [Compound 2b, 2-((2-((5-chloro-2-phenoxyphenyl)amino)-2-oxoethyl)sulfonyl)nicotinic acid]	0	0	5	0	
CCOc1ccc(C(Nc2cccnc2)c2cc(Cl)c3cccnc3c2O)cc1 (centres unmarked) [CB7969312]					effectively neutralizes the toxicity
COc1ccc(Cl)cc1NC(=O)C[S+]([O-])c1ncccc1C(=O)O (centres unmarked) [Compound 2c, 2-((2-((5-chloro-2-methoxyphenyl)amino)-2-oxoethyl)sulfinyl)nicotinic acid]	20	100	60.0	35	
COc1ccc(Cl)cc1NC(=O)CS(=O)(=O)c1cc(C(=O)O)ccn1 [Compound 2a, 2-((2-((5-chloro-2-methoxyphenyl)amino)-2-oxoethyl)sulfonyl)isonicotinic acid]	0	0	10	0	
